What is called IC50 is the concentration that inhibits the measured activity by half. The low end stands for greater potency, the high end for weaker potency.

10 compounds from patent publication US7495022B2, “α,β-unsaturated hydroxamic acid derivatives and their use as histone deacetylase inhibitors” (SK Chemicals Co., Ltd., priority 2002, dated 2009) can be followed below.

Holding throughout (type): cell-based
The test system of one test is A-549, lung cancer. Briefly: In vitro cytotoxicity, MTT assay, A-549. The conditions noted are these: A549, 96 h, A-549 human lung cancer cells, 4 days incubation. The method, then:
(§1) Three human cancer cell lines (A-549, lung cancer; SK-BR-3, breast cancer; MKN-45, stomach cancer) were tested in MTT assay. These cell lines were grown in RPMI 1640 medium supplemented with penicillin-streptomycin (100 units/mL) and 10% heat-inactivated fetal bovine serum under standard culture condition (20% O2 and 5% CO2, 37° C.). Single-cell suspensions were prepared by trypsinization and pipette disaggregation. The number of cells for each cell line plated in 96-well microtiter plates was determined from the growth curve obtained in MTT assay. Test compounds were diluted from stock solution in DMSO into fresh medium to a 10× concentration. Cells were inoculated into each well in 180 μL of medium and eight different concentrations of 20 μL of test compounds were added to each well. The plates were then incubated for 4 days at 37° C., 5% CO2. After 4 days of culture, 0.1 mg (20 μL of 5 mg/mL) of MTT was added to each well. The plates were then incubated at 37° C. for 4 hours. After the plates were centrifuged at 1,000 rpm for 10 minutes, the supernatant was aspirated. 150 μL of DMSO was added to each well to solubilize formazan crystals. The plates were read immediately at 550 nm on Elisa reader (Dynatech, MR 5000).

Another test has as its system SK-BR-3, breast cancer. Briefly: In vitro cytotoxicity, MTT assay, SK-BR-3. Conditions: 96 h, SK-BR-3 human breast cancer cells, 4 days incubation. The method, then:
as §1

A further test has as its system MKN-45, stomach cancer. The test is described as follows: In vitro cytotoxicity, MTT assay, MKN-45. Conditions: 96 h, MKN-45 human stomach cancer cells, 4 days incubation. The method, then:
as §1
Background: Tetrazolium dyes change colour on reduction, which living cells bring about.

For `O=C(C=Cc1ccc(CNC(=O)c2cccnc2)cc1)NO` [Example 7, N-[4-(2-Hydroxycarbamoylvinyl)benzyl]nicotinamide], the IC50 in the test with A-549, lung cancer came out at 2.89 µM; in the test with SK-BR-3, breast cancer it was 1.28 µM; with MKN-45, stomach cancer, 4.98 µM.
As for `O=C(C=Cc1ccc(CNC(=O)OCc2cccnc2)cc1)NO` [Example 8, [4-(2-Hydroxycarbamoylvinyl)benzyl]carbamic acid pyridin-3-ylmethyl ester], the IC50 in the test with A-549, lung cancer came out at 2.61 µM; with SK-BR-3, breast cancer, 1.12 µM; in the test with MKN-45, stomach cancer, 3.34 µM.
Regarding `O=C(C=Cc1ccc(CNC(=O)c2ccc(N3CCCC3)cc2)cc1)NO` [Example 5, N-[4-(2-Hydroxycarbamoylvinyl)benzyl]-4-pyrrolidin-1-ylbenzamide], the concentration for half-maximal inhibition (IC50) amounted to 0.35 µM in the test on A-549, lung cancer; 0.11 µM with SK-BR-3, breast cancer; 0.8 µM with MKN-45, stomach cancer.
Consider `O=C(C=Cc1ccc(CNC(=O)c2ccc(N3CCN(Cc4ccccn4)CC3)cc2)cc1)NO` [Example 2, N-[4-(2-Hydroxycarbamoylvinyl)benzyl]-4-(4-pyridin-2-ylmethylpiperazin-1-yl)benzamide], for which the IC50 in the test with A-549, lung cancer was determined as 1.65 µM; in the test with SK-BR-3, breast cancer, 0.27 µM; with MKN-45, stomach cancer it was 2.94 µM.
`CN(C)c1ccc(C(=O)NCc2ccc(C=CC(=O)NO)cc2)cc1` [Example 6, 4-Dimethylamino-N-[4-(2-hydroxycarbamoylvinyl)benzyl]benzamide]: the half-maximal inhibitory concentration (IC50) was 0.48 µM with A-549, lung cancer; 0.16 µM in the test with SK-BR-3, breast cancer; 0.83 µM in the test with MKN-45, stomach cancer.
For `O=C(C=Cc1ccc(CNC(=O)c2ccc(N3CCN(Cc4cccnc4)CC3)cc2)cc1)NO` [Example 1, N-[4-(2-Hydroxycarbamoylvinyl)benzyl]-4-(4-pyridin-3-ylmethylpiperazin-1-yl)benzamide], the IC50 in the test on A-549, lung cancer amounted to 12 µM; with SK-BR-3, breast cancer, 3.19 µM; with MKN-45, stomach cancer it was 38.6 µM.
Turning to `O=C(C=Cc1ccc(CNC(=O)c2ccc(N3CCN(Cc4ccncc4)CC3)cc2)cc1)NO` [Example 3, N-[4-(2-Hydroxycarbamoylvinyl)benzyl]-4-(4-pyridin-4-ylmethylpiperazin-1-yl)benzamide], the IC50 in the test with A-549, lung cancer was 3.02 µM; with SK-BR-3, breast cancer, 1.72 µM; in the test on MKN-45, stomach cancer, 56.1 µM.
Take `O=C(C=Cc1ccc(CS(=O)(=O)Nc2cccnc2)cc1)NO` [Example 9, N-Hydroxy-3-[4-(pyridin-3-ylsulfamoylmethyl)phenyl]acrylamide]: the IC50 came out at 37 µM in the test with A-549, lung cancer; 22.9 µM in the test with SK-BR-3, breast cancer; 62 µM in the test on MKN-45, stomach cancer.
With `O=C(C=Cc1ccc(CS(=O)(=O)c2ccccc2)cc1)NO` [Example 10, 3-[4-(Benzenesulfonylmethyl)phenyl]-N-hydroxyacrylamide], the IC50 with A-549, lung cancer was 11.1 µM; in the test on SK-BR-3, breast cancer it was 4.57 µM; in the test on MKN-45, stomach cancer, 8.34 µM.
For the compound `O=C(C=Cc1ccc(CNC(=O)c2ccccn2)cc1)NO` [Example 4, N-[4-(2-Hydroxycarbamoylvinyl)benzyl]picolinamide], the IC50 with A-549, lung cancer was 2.23 µM; in the test on SK-BR-3, breast cancer, 0.87 µM; with MKN-45, stomach cancer, 3.64 µM.
